# What was measured:
# mu opioid receptor (MOR) [1] = target: T1, mu opioid receptor (MOR) (Homo sapiens, UniProt P35372); assay: PathHunter β-arrestin recruitment assay, PAM mode with EC20 endomorphin-1; assay type: cell-based
# Outline: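 β-Arrestin recruitment to the receptor was tracked by chemiluminescent β-galactosidase activity from complementing fragments (ED on receptor, EA on β-arrestin). Per-compound outputs were EC50 and percent maximal response.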
# mu opioid receptor (MOR) [2] = target: T1, mu opioid receptor (MOR); assay: Hit Hunter cAMP signaling assay (adenylyl cyclase inhibition), PAM mode with EC20 endomorphin-1; assay type: cell-based
# [3] = maximal response for β-arrestin recruitment
# [4] = β-arrestin recruitment, read-out: β-arr. EC50
# [5] = cAMP EC50, adenylyl cyclase inhibition
# [6] = maximal response for adenylyl cyclase inhibition
# [7] = adenylyl cyclase inhibition, read-out: cAMP EC50
# [8] = maximal response, β-arrestin recruitment
# [9] = maximal response, adenylyl cyclase inhibition
# T1 sequence (P35372 whole entry, the tested form may be a part): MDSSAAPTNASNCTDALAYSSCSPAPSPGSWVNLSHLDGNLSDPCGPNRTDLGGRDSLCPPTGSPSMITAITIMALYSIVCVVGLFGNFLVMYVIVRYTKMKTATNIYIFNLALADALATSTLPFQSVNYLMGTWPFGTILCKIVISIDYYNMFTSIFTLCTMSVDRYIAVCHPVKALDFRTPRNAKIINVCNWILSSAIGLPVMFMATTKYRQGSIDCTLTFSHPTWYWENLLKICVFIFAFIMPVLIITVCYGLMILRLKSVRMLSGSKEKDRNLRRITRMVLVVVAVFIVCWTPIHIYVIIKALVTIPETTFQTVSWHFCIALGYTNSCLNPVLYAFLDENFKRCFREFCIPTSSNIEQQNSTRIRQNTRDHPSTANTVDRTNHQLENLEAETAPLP
SMILES,β-arr Max. Resp. (mu opioid receptor (MOR) [1]; [3]),EC50 (mu opioid receptor (MOR) [1]; [4]),EC50 (mu opioid receptor (MOR) [2]; [5]),cAMP Max. Resp. (mu opioid receptor (MOR) [2]; [6]),EC50 (mu opioid receptor (MOR) [2]; [7]),β-arr Max. Resp. (mu opioid receptor (MOR) [1]; [8]),cAMP Max. Resp. (mu opioid receptor (MOR) [2]; [9]),"β-arrestin Max Response (mu opioid receptor (MOR) [1]; β-arrestin recruitment, activity switching by MOR PAMs)","EC50 (mu opioid receptor (MOR) [1]; β-arrestin recruitment, activity switching by MOR PAMs, read-out: β-arrestin EC50)","cAMP Max Resp. (mu opioid receptor (MOR) [2]; adenylyl cyclase inhibition, activity switching by MOR PAMs)","EC50 (mu opioid receptor (MOR) [2]; adenylyl cyclase inhibition, activity switching by MOR PAMs, read-out: cAMP EC50)"
Fc1ccc(C2CC(F)(F)CCN2c2nc(Cl)ncc2F)cc1Br (stereo not drawn) [compound 246],F (F represents a maximal response of > 60%),0.7 to 2.1 µM,0.7 to 2.1 µM,D (D represents a maximal response of < 40%),,,,,,,
O=S(=O)(c1ccc(Cl)cc1)N1CCCCC1c1ccc(F)nc1 (racemic) [compound 53],F (F represents a maximal response of > 60%),> 2.1 µM,,F (F represents a maximal response of > 60%),> 2.1 µM,,,,,,
FC(F)(F)c1cccc(C2CCCCN2c2cc(Cl)ncn2)c1 (stereo not drawn) [compound 360],D (D represents a maximal response of < 40%),< 0.7 µM,< 0.7 µM,D (D represents a maximal response of < 40%),,,,,,,
Fc1cnc(Cl)nc1N1CCCCC1c1cccc(C(F)F)c1 (stereo not drawn) [compound 298],F (F represents a maximal response of > 60%),> 2.1 µM,< 0.7 µM,F (F represents a maximal response of > 60%),,,,,,,
COc1ccc(C2C(C(F)(F)F)CCN2S(=O)(=O)c2ccc(Cl)cc2)cc1Br (mixture of isomers) [Compound 90],D (D represents a maximal response of < 40%),> 2.1 µM,,D (D represents a maximal response of < 40%),> 2.1 µM,,,,,,
FC(F)(F)c1cccc(C2CCCCN2Cc2cccc(Cl)c2)c1 (stereo not drawn) [compound 154],F (F represents a maximal response of > 60%),< 0.7 µM,< 0.7 µM,E (E represents a maximal response of 40-60%),,,,,,,
Fc1ccc(C2CCCCN2c2ccnc(Cl)n2)cc1Cl (stereo not drawn) [compound 470],,> 2.1 µM,> 2.1 µM,,,F (F represents a maximal response of > 60%),E (E represents a maximal response of 40-60%),,,,
Cc1cc(C)cc(N2CCCCC2c2ccc(F)c(Cl)c2)c1 (stereo not drawn) [compound 471],,> 2.1 µM,> 2.1 µM,,,F (F represents a maximal response of > 60%),D (D represents a maximal response of < 40%),,,,
CC1CC(c2cccc(C(F)(F)F)c2)N(c2nc(Cl)ncc2F)C1 (stereo not drawn) [compound 448],,> 2.1 µM,,,> 2.1 µM,F (F represents a maximal response of > 60%),D (D represents a maximal response of < 40%),,,,
Fc1ccc(Cl)cc1CN1CCOCC1c1cccc(C(F)(F)F)c1 (racemic) [Compound 193],F (F represents a maximal response of > 60%),0.7 to 2.1 µM,,F (F represents a maximal response of > 60%),> 2.1 µM,,,,,,
"O=S(=O)(c1ccc(Cl)cc1)N1CCCCC1c1ccc(Cl)c(C(F)(F)F)c1 (single isomer, unassigned) [compound 69]",F (F represents a maximal response of > 60%),> 2.1 µM,,D (D represents a maximal response of < 40%),0.7 to 2.1 µM,,,,,,
Fc1cnc(Cl)nc1N1CCCCC1c1ccncn1 (stereo not drawn) [compound 391],D (D represents a maximal response of < 40%),< 0.7 µM,< 0.7 µM,D (D represents a maximal response of < 40%),,,,,,,
COc1cc(C2CCCCN2c2nc(Cl)ncc2F)ccc1Br (stereo not drawn) [compound 288],F (F represents a maximal response of > 60%),> 2.1 µM,> 2.1 µM,E (E represents a maximal response of 40-60%),,,,,,,
O=S(=O)(c1ccc(Cl)cc1)N1CCCCC1c1cc(F)cc(C(F)(F)F)c1 (racemic) [compound 72],F (F represents a maximal response of > 60%),0.7 to 2.1 µM,,D (D represents a maximal response of < 40%),< 0.7 µM,,,F (F represents a maximal response of >60%),0.7 to 2.1 µM,D (D represents a maximal response of < 40%),< 0.7 µM
Fc1cnc(Cl)nc1N1CCOCC1c1cccc(C(F)(F)F)c1 (racemic) [Compound 188],F (F represents a maximal response of > 60%),> 2.1 µM,,E (E represents a maximal response of 40-60%),0.7 to 2.1 µM,,,,,,
CS(=O)(=O)N1CCN(c2nc(Cl)ncc2F)C(c2cc(F)cc(C(F)(F)F)c2)C1 (racemic) [Compound 309],E (E represents a maximal response of 40-60%),> 2.1 µM,,D (D represents a maximal response of < 40%),> 2.1 µM,,,,,,
FC(F)(F)c1cccc(C2CCCCN2Cc2ccc(Cl)cc2)n1 (stereo not drawn) [compound 146],F (F represents a maximal response of > 60%),> 2.1 µM,> 2.1 µM,D (D represents a maximal response of < 40%),,,,,,,

# — US11071731B2, “Allosteric modulators of the mu opioid receptor” (Chiromics, LLC, priority 2017, dated 2021)
